We go through five compounds from patent publication US9321773B2, “Compounds” (Respivert Ltd, priority 2009, dated 2016).

For one data set, the target named is recombinant PI3 kinase α (Homo sapiens (Human), UniProt P42336). The data set is described as follows: Enzyme Inhibition Assay (HTRF PI3K enzyme assay, TR-FRET). In kind it is biochemical. Particulars: activity range; read-out: PI3 Kinase Inhibition IC50 values at stated Isozyme α. A digest of the protocol:
(§1)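 TR-FRET readout after 15-18 hr at RT with biotinylated PIP3, GST-tagged GRP1 PH domain and europium/APC fluorophores; product PIP3 displaces the tracer and lowers the signal. Beforehand, compound and PIP2 were reacted for 2 hr at RT with human recombinant PI3Kα, δ or γ.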
(In general: TR-FRET usually uses a lanthanide donor and a delayed reading to cut background.)

The target of another data set is recombinant PI3 kinase δ (Homo sapiens (Human), UniProt O00329). The data set is described as above. It is filed as biochemical. Particulars: activity range; read-out: PI3 Kinase Inhibition IC50 values at stated Isozyme δ. A digest of the protocol:
as §1

A further data set concerns the target recombinant PI3 kinase γ (Homo sapiens (Human), UniProt P48736). The data set is described as above. In kind it is biochemical. Particulars: activity range; read-out: PI3 Kinase Inhibition IC50 values at stated Isozyme γ. A digest of the protocol: as §1
The nature of data set [1]: Stereochemical analysis by chiral stationary phase HPLC (atropisomerism). It is filed as physicochemical. Particulars: chiral stationary phase HPLC (16 different conditions for the examples). The protocol:
Each of these mobile phase are compatible with the column packings referred to above, providing sixteen different solvent and stationary phase permutations. Modifiers such as triethylamine (0.1%), formic acid (0.1%) may be added to improve the resolution
Semi-preparative Chiral Stationary Phase LC-UV was performed on a Gilson preparative modular system using a Daicel Chiralpak AD semi-prep column ([…], 20×250 mm) and a flow rate of 18 mL/min eluting with an isocratic method over 20 min using […] heptane:IPA and 0.1% triethylamine employing an injection volume of 1.0 mL.

In data set [2] the test system is H2O2 induced pAkt in D-U937 cells. The data set is described as follows: PI3Kδ Cell Based Assay (H2O2 induced pAkt). Particulars: Homo sapiens, dU937; activity range; D-U937 cells; read-out: Cellular Activity IC50 values (H2O2 induced pAkt D-U937 Cells). A digest of the protocol: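 Read-out is the pAkt/total Akt signal ratio, measured with anti-pAkt and anti-pan-Akt antibodies after H2O2 stimulation. Cells were U937 monocytes given PMA (100 ng/mL) for 48 to 72 hr. IC50 values fitted from compound serial dilutions.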

For data set [3], the system named is PMA-differentiated U937 cells. The data set is described as follows: MTT Assay (cell viability). It is filed as cell-based, Human. Particulars: percentage loss of cell viability; for Cell Viability MTT Assay in D-U937 cells at 4 hr: 4 hr in 5% FCS; for Cell Viability MTT Assay in D-U937 cells at 24 hr: 24 hr in 10% FCS. The procedure, abridged:
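Differentiated U937 cells treated with compound for 4 hr (5% FCS) or 24 hr (10% FCS), then given MTT for 1 hr; formazan dissolved in DMSO and absorbance read at 550 nm. Viability loss expressed as % versus 0.5% DMSO vehicle.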

The IC50 is the concentration that inhibits the measured activity by half.

A value given as a limit tells only on which side of the number the result lay.

recombinant PI3 kinase α, sequence (P42336 whole entry, the tested form may be a part): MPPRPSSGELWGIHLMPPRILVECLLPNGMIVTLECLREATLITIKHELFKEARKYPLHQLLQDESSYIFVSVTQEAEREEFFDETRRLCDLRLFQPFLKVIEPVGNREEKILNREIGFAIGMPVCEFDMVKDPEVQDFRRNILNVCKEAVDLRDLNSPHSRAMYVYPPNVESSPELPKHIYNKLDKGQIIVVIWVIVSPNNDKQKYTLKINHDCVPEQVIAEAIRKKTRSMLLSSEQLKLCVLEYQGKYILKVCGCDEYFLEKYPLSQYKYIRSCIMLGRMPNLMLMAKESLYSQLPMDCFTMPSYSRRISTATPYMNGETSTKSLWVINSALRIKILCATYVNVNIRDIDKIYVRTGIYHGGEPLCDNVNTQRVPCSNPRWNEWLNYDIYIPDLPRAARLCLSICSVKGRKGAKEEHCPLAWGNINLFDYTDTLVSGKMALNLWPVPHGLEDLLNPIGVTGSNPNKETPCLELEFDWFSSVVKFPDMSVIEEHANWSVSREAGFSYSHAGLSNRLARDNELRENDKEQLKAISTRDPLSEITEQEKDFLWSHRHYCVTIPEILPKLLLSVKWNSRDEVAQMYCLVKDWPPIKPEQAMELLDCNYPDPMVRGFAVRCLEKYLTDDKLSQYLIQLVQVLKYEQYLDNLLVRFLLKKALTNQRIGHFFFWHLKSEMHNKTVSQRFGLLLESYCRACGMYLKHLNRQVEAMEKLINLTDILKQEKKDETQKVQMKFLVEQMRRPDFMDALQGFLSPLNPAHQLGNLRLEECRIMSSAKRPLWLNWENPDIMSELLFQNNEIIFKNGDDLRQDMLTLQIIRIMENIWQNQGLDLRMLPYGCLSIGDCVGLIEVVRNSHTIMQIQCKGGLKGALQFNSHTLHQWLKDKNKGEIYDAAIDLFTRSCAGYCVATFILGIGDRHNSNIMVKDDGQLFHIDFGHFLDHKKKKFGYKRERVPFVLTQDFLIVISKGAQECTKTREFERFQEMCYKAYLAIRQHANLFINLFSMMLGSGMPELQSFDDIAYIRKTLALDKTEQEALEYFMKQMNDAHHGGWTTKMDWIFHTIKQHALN
recombinant PI3 kinase α, sequence (P27986 whole entry partner, the tested form may be a part): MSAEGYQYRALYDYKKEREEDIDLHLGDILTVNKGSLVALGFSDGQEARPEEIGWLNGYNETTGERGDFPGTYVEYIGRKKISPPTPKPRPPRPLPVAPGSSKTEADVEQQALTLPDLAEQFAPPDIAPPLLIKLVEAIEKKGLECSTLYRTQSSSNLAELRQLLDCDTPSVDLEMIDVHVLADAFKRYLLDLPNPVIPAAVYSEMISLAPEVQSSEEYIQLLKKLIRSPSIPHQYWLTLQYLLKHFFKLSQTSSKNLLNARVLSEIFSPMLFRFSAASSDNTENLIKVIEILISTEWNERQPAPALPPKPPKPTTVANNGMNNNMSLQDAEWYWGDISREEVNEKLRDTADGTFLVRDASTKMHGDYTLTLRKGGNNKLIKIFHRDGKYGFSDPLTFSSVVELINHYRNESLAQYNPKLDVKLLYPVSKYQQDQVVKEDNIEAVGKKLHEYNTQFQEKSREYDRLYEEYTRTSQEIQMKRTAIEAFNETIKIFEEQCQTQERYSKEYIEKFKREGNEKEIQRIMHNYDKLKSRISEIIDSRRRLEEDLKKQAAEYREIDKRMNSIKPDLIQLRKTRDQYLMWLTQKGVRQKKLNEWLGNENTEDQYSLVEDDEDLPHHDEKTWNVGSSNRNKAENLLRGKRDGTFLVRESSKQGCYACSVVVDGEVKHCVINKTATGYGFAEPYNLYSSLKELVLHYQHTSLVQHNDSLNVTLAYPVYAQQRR
recombinant PI3 kinase δ, sequence (O00329 whole entry): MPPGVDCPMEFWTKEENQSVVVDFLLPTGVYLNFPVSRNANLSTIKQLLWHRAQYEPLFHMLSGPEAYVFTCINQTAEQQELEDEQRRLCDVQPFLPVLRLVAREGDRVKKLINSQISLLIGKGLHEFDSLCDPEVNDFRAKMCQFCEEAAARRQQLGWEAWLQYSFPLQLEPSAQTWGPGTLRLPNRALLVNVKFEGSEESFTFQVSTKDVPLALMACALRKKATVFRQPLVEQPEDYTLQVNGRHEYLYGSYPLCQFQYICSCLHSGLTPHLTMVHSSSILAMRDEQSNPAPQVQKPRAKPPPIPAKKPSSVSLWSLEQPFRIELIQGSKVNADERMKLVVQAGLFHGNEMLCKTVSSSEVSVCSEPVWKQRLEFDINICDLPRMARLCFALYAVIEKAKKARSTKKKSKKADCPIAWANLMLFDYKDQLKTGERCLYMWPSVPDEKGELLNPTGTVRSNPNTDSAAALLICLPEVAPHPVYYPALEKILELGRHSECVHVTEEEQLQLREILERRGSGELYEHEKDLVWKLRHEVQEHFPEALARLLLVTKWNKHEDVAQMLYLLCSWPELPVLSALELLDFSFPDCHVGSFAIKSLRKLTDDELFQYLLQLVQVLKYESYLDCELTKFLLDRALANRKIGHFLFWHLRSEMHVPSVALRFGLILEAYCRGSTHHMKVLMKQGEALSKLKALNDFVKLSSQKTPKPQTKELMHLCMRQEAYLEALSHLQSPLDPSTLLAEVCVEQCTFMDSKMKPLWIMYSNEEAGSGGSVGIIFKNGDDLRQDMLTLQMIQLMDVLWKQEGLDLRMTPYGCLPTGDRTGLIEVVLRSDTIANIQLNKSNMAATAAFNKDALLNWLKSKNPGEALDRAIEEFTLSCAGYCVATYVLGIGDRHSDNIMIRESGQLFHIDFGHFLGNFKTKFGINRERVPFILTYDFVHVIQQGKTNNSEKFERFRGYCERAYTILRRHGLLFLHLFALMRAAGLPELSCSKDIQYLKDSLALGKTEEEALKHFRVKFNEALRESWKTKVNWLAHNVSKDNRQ
recombinant PI3 kinase δ, sequence (P27986 whole entry partner): as the sequence (P27986 whole entry partner, the tested form may be a part) above
recombinant PI3 kinase γ, sequence (P48736 whole entry): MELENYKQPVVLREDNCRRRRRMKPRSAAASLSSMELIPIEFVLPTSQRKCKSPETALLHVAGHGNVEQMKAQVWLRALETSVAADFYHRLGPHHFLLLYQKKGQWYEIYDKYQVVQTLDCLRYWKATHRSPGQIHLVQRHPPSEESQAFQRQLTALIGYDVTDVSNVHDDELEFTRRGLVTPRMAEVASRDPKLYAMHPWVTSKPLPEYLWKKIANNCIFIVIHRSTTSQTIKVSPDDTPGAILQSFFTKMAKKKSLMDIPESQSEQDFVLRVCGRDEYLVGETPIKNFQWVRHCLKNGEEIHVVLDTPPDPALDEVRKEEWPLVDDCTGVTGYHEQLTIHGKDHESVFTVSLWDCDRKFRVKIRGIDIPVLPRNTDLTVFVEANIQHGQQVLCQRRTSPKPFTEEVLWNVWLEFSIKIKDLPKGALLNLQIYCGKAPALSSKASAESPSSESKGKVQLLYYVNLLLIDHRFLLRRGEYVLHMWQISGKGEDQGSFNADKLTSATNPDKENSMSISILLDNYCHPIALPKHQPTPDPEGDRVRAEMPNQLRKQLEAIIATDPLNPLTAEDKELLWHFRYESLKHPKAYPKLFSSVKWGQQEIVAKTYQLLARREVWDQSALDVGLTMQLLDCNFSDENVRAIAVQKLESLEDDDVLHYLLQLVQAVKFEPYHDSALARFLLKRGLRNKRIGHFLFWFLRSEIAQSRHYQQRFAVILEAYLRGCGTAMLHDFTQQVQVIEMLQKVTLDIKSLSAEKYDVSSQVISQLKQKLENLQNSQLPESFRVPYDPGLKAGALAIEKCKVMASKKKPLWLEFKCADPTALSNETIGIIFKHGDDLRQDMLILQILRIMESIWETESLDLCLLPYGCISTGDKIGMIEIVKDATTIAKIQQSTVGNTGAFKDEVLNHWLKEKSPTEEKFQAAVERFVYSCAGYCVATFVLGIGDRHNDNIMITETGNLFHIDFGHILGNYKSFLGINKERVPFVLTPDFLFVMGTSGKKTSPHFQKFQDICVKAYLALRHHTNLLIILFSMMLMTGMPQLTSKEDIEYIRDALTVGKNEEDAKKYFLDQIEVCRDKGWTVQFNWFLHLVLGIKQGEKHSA

For the compound `C#Cc1cccc2nc(Cn3nc(-c4cccc(O)c4)c4c(N)ncnc43)n(Cc3cccc(S(C)(=O)=O)c3)c(=O)c12` [Example 23, 2-((4-Amino-3-(3-hydroxyphenyl)-1H-pyrazolo[3,4-d]pyrimidin-1-yl)methyl)-5-ethynyl-3-(3-(methylsulfonyl)benzyl)quinazolin-4(3H)-one], the IC50 on recombinant PI3 kinase α was 50 to 1000 nM; at recombinant PI3 kinase δ, < 50 nM; at recombinant PI3 kinase γ, 50 to 1000 nM; in data set [2], < 10 nM. The “atropisomerism by chiral stationary phase HPLC” value (shortened to “atropisomerism”) in data set [1] is “no evidence for atropisomerism was observed”. For the same compound, in data set [3], the “Cell Viability MTT Assay in D-U937 cells at 4 hr” value is given as “− (− <30%)”. Further, the “Cell Viability MTT Assay in D-U937 cells at 24 hr” value in data set [3] is reported as “− (− <30%)”.
In the case of `C#Cc1cccc2nc(Cn3nc(-c4cccc(O)c4)c4c(N)ncnc43)n(Cc3cccc(C#N)c3)c(=O)c12` [Example 24, 3-((2-((4-Amino-3-(3-hydroxyphenyl)-1H-pyrazolo[3,4-d]pyrimidin-1-yl)methyl)-5-ethynyl-4-oxoquinazolin-3(4H)-yl)methyl)benzonitrile], the IC50 is 50 to 1000 nM on recombinant PI3 kinase α, < 50 nM at recombinant PI3 kinase δ, 50 to 1000 nM on recombinant PI3 kinase γ and < 10 nM in data set [2]. For the same compound, the “atropisomerism” value in data set [1] is listed as “no evidence for atropisomerism was observed”. For the same compound, the “Cell Viability MTT Assay in D-U937 cells at 4 hr” value in data set [3] was “− (− <30%)”. The “Cell Viability MTT Assay in D-U937 cells at 24 hr” value in data set [3] is “− (− <30%)”.
`C#Cc1cccc2nc(Cn3nc(-c4cccc(O)c4)c4c(N)ncnc43)n(Cc3ccc(Cl)cc3)c(=O)c12` [Example 25, 2-((4-Amino-3-(3-hydroxyphenyl)-1H-pyrazolo[3,4-d]pyrimidin-1-yl)methyl)-3-(4-chlorobenzyl)-5-ethynylquinazolin-4(3H)-one]: the IC50 at recombinant PI3 kinase α is 50 to 1000 nM; on recombinant PI3 kinase δ it was < 50 nM; at recombinant PI3 kinase γ, 50 to 1000 nM; in data set [2], < 10 nM. In data set [1], the “atropisomerism” value is “no evidence for atropisomerism was observed”. Also, the “Cell Viability MTT Assay in D-U937 cells at 4 hr” value in data set [3] is “− (− <30%)”. For the same compound, the “Cell Viability MTT Assay in D-U937 cells at 24 hr” value in data set [3] is “− (− <30%)”.
In the case of `C#Cc1cccc2nc(Cn3nc(-c4cccc(O)c4)c4c(N)ncnc43)n(Cc3cc(C)on3)c(=O)c12` [Example 31, 2-((4-Amino-3-(3-hydroxyphenyl)-1H-pyrazolo[3,4-d]pyrimidin-1-yl)methyl)-5-ethynyl-3-((5-methylisoxazol-3-yl)methyl)quinazolin-4(3H)-one], the IC50 on recombinant PI3 kinase α was 50 to 1000 nM; on recombinant PI3 kinase δ it was < 50 nM; at recombinant PI3 kinase γ, 50 to 1000 nM; in data set [2], < 10 nM. For the same compound, the “atropisomerism” value in data set [1] is on record as “no evidence for atropisomerism was observed”. Besides, the “Cell Viability MTT Assay in D-U937 cells at 4 hr” value in data set [3] is recorded as “− (− <30%)”. For the same compound, in data set [3], the “Cell Viability MTT Assay in D-U937 cells at 24 hr” value was “− (− <30%)”.
Regarding `C#Cc1cccc2nc(Cn3nc(-c4ccc(O)cc4)c4c(N)ncnc43)n(Cc3cc(C)on3)c(=O)c12` [Example 32, 2-((4-Amino-3-(4-hydroxyphenyl)-1H-pyrazolo[3,4-d]pyrimidin-1-yl)methyl)-5-ethynyl-3-((5-methylisoxazol-3-yl)methyl)quinazolin-4(3H)-one], the IC50 on recombinant PI3 kinase α is 50 to 1000 nM; at recombinant PI3 kinase δ, < 50 nM; at recombinant PI3 kinase γ, 50 to 1000 nM; in data set [2] it was < 10 nM. The “atropisomerism” value in data set [1] is given as “no evidence for atropisomerism was observed”. In addition, the “Cell Viability MTT Assay in D-U937 cells at 4 hr” value in data set [3] is recorded as “− (− <30%)”. The “Cell Viability MTT Assay in D-U937 cells at 24 hr” value in data set [3] is “− (− <30%)”.
